Patent US9435738B2, “System and device for characterizing cells” (The Johns Hopkins University, priority 2011, dated 2016)

System: Mouse myoblasts (c2c12)
Assay: microscopy-based assay measuring cell cycle phase and cell/nuclear properties simultaneously in the same cells
Settings: for cell cycle phase enriched / blocked by treatment: cell-cycle distribution vs control cells; for contribution to changes in nuclear size due to (uncontrolled) intrinsic changes in nuclear size in each phase / contribution to changes in nuclear size due to forced cell-cycle redistribution: population-averaged nuclear size, Eq. 2, FIG. 36 B; for time after release at which asynchronized (untreated) cell cycle distribution is recovered: release from synchronizing drug
Protocol: For each type of cell, ˜10,000 cells were plated on a glass bottom dish (World Precision Instruments, Sarasota, Fla.). After incubation for 48 h, the treatment for synchronization was applied. To serum-starve cells, cells were washed three times with Hanks' balanced salt solution (HBSS) (GBICO) and cultured in serum-free medium for 72 h. For synchronization at early S phase, cells were treated with 2 mM of thymidine for 18 h twice. Between these two treatments, cells were rinsed with HBSS three times and cultured in normal growth medium to release cell cycle for 9 h. To synchronize cells in the M phase, cells were first treated with 2 mM of thymidine for 24 h. Followed by rinsing with HBSS three times, cells were released with normal growth medium for 3 h. After the short release, cells were treated with 100 ng/ml of microtubule-depolymerizing drug nocodazole for 12 h.
Cells were fixed with 3.7% of formaldehyde (Sigma) for 15 min at room temperature (RT). After fixation, cells were permeabilized with 0.1% Triton X-100 (Sigma) for 10 min and blocked for nonspecific binding with phosphate-buffered saline (PBS) supplemented with 10% of goat serum for 30 min. Cells were incubated with specific concentration of dye diluted from stock solution for 1 h. Nuclear DNA was stained with Hoechst 33342 (Sigma) at 1:40 dilution, Cytoplasm was stained with HCS CellMask Cy5 (Invitrogen) at 1:20000 dilution. Actin was stained with Phalloidin 488 (Invitrogen) at 1:40 dilution. PBS rinse was conducted three times between each step.
Fluorescent images were collected with a Nikon DS-QiMc camera installed on a customized Nikon TE300 microscope with a 10× Plan Fluor lens (N.A. 0.3, Nikon Melville, N.Y.), a motorized stage, and motorized excitation and emission filters (Prior Scientific, Rockland, Mass.) controlled by Nikon NIS Elements. Eighty-one (9-by-9 grid) fields of views were consistently generated using the software Nikon NIS-Elements. The size of the image acquired from the camera was 1280×1024 pixels, and the pixel size was 0.57 μm for a 10× objective. Our ΔX and ΔY for image capture was 662 μm and 520 μm respectively to allow 10% overlay between adjacent fields. The total size of the scanning region (81 images) was ˜28.5 mm^2. Four different channels (UV, GFP, Cy5, and phase contrast) were collected for every field of view. The calibration glass-bottom dish contained dyes for three different fluorescent channels, UV, GFP, and Cy5. For each fluorescence channel, UV, GFP, and Cy5, two calibration images were acquired: with and without illumination. The calibration images were used to reduce the non-uniform illumination of fluorescent images. All of the phenotypic information was calculated with a custom high throughput program (written in Matlab) developed in our laboratory. Typically >1,000 cells were analyzed per different biological repeat (i.e. different cells) for a total >3,000 cells for each tested condition.
To precisely segment individual cells and nuclei, we used slightly different approaches based on the same principle. For nuclear segmentation, because of the relatively circular shape and relatively even intensity of the Hoechst stain, we filtered calibrated images (as described in the previous section) with a 23×23 pixel normalized Gaussian filter (similar scale as the size of nuclei) and an averaging filter (same size) to obtain IG (Gaussian intensity) and IM (averaged intensity). Subtracting IM from IG gives IN, the nuclear intensity values without regional background.
Because cells are larger than their nuclei, a larger size of filters was needed. However, one major limitation with spatial domain image filters is non-continuous edges. Increasing the size of the filter increases the size of this “non-trustable” region. The use of a spatial filter 2r+1 in size will lead to the loss of r+1 pixels from the edge because of incomplete information, which greatly reduces the usable image size. […]

Compound	decrease in nuclear size of cells in the G0/G1 phase (10 nM for 24 h, G0/G1 phase, P<0.0001) [%]	decrease in population-averaged cell size / nuclear size (10 nM for 24 h, population-averaged, accompanied by rounding of the nucleus) [%]	time after release during which cell properties continued to be affected (after removing inhibitor)	cell cycle phase enriched / blocked by treatment	increase in mean cell size in the G2/M phase compared to untreated (asynchronized) cells in the same phase [%]	change in measured cell properties caused by synchronization (compared phase-to-phase to control cells) [%]	contribution to changes in nuclear size due to (uncontrolled) intrinsic changes in nuclear size in each phase [%]	contribution to changes in nuclear size due to forced cell-cycle redistribution [%]	time after release at which asynchronized (untreated) cell cycle distribution is recovered [h]	increase in mean size of cells in the G0/G1 phase compared to untreated (asynchronized) cells in the same phase (G0/G1 phase) [%]	mean size of treated cells in the S phase relative to mean size of untreated cells in the S phase (S phase) [times]	increase in mean size of cells in the S phase compared to untreated cells in the same phase (S phase, after forced synchronization) [%]
CCNc1cc(N[C@H]2CC[C@H](O)CC2)nc(Nc2ccc3c(ccn3Cc3ccccc3)c2)n1 [Cdk4/6 inhibitor IV, trans-4-((6-(ethylamino)-2-((1-(phenylmethyl)-1H-indol-5-yl)amino)-4-pyrimidinyl)amino)-cyclohexanol]	> 50	~50	up to 6 h	blocked cells in the G0/G1 phase								
COC(=O)Nc1nc2ccc(C(=O)c3cccs3)cc2[nH]1 [nocodazole]				M phase	75	> 30	41	35	24			
Cc1cn([C@H]2C[C@H](O)[C@@H](CO)O2)c(=O)[nH]c1=O [thymidine]				S phase	220		91	9	24	130	2.2	120
